Test results as given in the NIST ThermoML archive (doi:10.1021/acs.jced.5b01023).
Several values for one entry are separate records, joined by “and”; a condition that tells them apart may be missing. Equal entries are not always repeated.

What was measured:
[1] = for viscosity / mass density: 101 kPa, Liquid; for viscosity: Capillary tube (Ostwald / Ubbelohde) method; for mass density: Vibrating tube method
[2] = refractive index (Na D-line) (dimensionless); conditions: 101 kPa, Liquid, Standard Abbe refractometry
[3] = xn = mol fraction of the nth substance listed; conditions: for viscosity / mass density: 101 kPa, Liquid; for viscosity: Capillary tube (Ostwald / Ubbelohde) method; for mass density: Vibrating tube method
[4] = refractive index (Na D-line) (dimensionless); xn = mol fraction of the nth substance listed; conditions: 101 kPa, Liquid, Standard Abbe refractometry, x2 = 0

CC(=O)[O-].CCn1cc[n+](C)c1 [1-ethyl-3-methylimidazolium acetate]
[1], Wilhelmy plates
Conditions	surface tension liquid-gas
278.2 K	48.1 mN/m
288.15 K	47.7 mN/m
298.15 K	47.1 mN/m
308.15 K	46.6 mN/m and 46.1 mN/m
318.15 K	46.1 mN/m
328.15 K	45.9 mN/m
338.15 K	45.4 mN/m
348.15 K	45.1 mN/m

Conditions	mass density, [1] [kg/m3]	refractive index, [2]	viscosity, [1] [mPa·s]
288.15 K	1105.2	1.50285	283.8
298.15 K	1099.03	1.50069	139
308.15 K	1092.93	1.49803	77.32
318.15 K	1086.86	1.49527	47.37
328.15 K	1080.82	1.49266	31.29
338.15 K	1074.83	1.48995	21.85
348.15 K	1068.88	1.48721	16.01

CC(=O)[O-].CCn1cc[n+](C)c1 [1-ethyl-3-methylimidazolium acetate] + CO
surface tension liquid-gas [mN/m], [3], Wilhelmy plate
Conditions	x1 = 0.1	x1 = 0.2	x1 = 0.3	x1 = 0.4	x1 = 0.5	x1 = 0.6	x1 = 0.6999	x1 = 0.8003	x1 = 0.9003	x1 = 1
278.2 K	28.5	32.7	35.9	38.4	40.3	42.1	44.3	45.9	47.6	48.1
288.2 K	28.1	32.1	35.3	38	40	41.6	43.8	45.1	46.9	47.7
298.2 K	27.5	31.6	35	37.5	39.6	41.1	43.3	44.7	46.4	47.1
308.2 K	26.8	31.1	34.5	37.1	39	40.8	42.8	44.2	45.9	46.6
318.2 K	26.3	30.6	33.9	36.5	38.7	40.4	42.4	43.9	45.3	46.1

CO [methanol]
[1], Wilhelmy plate
Conditions	surface tension liquid-gas [mN/m]
278.2 K	23.8
288.2 K	23.6
298.2 K	22.7
308.2 K	21.9
318.2 K	21

CO [methanol] + CC(=O)[O-].CCn1cc[n+](C)c1
[3], Wilhelmy plate, x2 = 0
Conditions	surface tension liquid-gas [mN/m]
278.2 K	23.8
288.2 K	23.6
298.2 K	22.7
308.2 K	21.9
318.2 K	21

CCCO [propan-1-ol]
[1], Wilhelmy plates
Conditions	surface tension liquid-gas [mN/m]
288.15 K	23.9
298.15 K	23.4
308.15 K	22.4
318.15 K	22
328.15 K	20.9
338.15 K	19.7
348.15 K	19

Conditions	mass density, [1] [kg/m3]	refractive index, [2]	viscosity, [1] [mPa·s]
288.15 K	807.55	1.38694	2.506
298.15 K	799.56	1.38303	1.952
308.15 K	791.46	1.37914	1.545
318.15 K	783.2	1.375	1.238
328.15 K	774.72	1.37075	1.006
338.15 K	765.98	1.36667	0.824
348.15 K	756.91	1.36201	0.684

CCCO [propan-1-ol] + CC(=O)[O-].CCn1cc[n+](C)c1
[3], Wilhelmy plates, x2 = 0
Conditions	surface tension liquid-gas [mN/m]
288.15 K	23.9
298.15 K	23.4
308.15 K	22.4
318.15 K	22
328.15 K	20.9
338.15 K	19.7
348.15 K	19

[3], x2 = 0
Conditions	mass density [kg/m3]	viscosity [mPa·s]
288.15 K	807.55	2.506
298.15 K	799.56	1.952
308.15 K	791.46	1.545
318.15 K	783.2	1.238
328.15 K	774.72	1.006
338.15 K	765.98	0.824
348.15 K	756.91	0.684

[4]
Conditions	refractive index
288.15 K	1.38694
298.15 K	1.38303
308.15 K	1.37914
318.15 K	1.375
328.15 K	1.37075
338.15 K	1.36667
348.15 K	1.36201

CC(C)O [propan-2-ol]
[1], Wilhelmy plates
Conditions	surface tension liquid-gas [mN/m]
288.15 K	21.6
298.15 K	21.2
308.15 K	20.5
318.15 K	19.6
328.15 K	18.7
338.15 K	17.4

Conditions	mass density, [1] [kg/m3]	refractive index, [2]	viscosity, [1] [mPa·s]
288.15 K	789.18	1.37933	2.752
298.15 K	780.84	1.37517	2.018
308.15 K	772.23	1.37093	1.507
318.15 K	763.27	1.36643	1.15
328.15 K	753.89	1.36173	0.895
338.15 K	744.02	1.35682	0.704

CC(C)O [propan-2-ol] + CC(=O)[O-].CCn1cc[n+](C)c1
[3], Wilhelmy plates, x2 = 0
Conditions	surface tension liquid-gas [mN/m]
288.15 K	21.6
298.15 K	21.2
308.15 K	20.5
318.15 K	19.6
328.15 K	18.7
338.15 K	17.4

[3], x2 = 0
Conditions	mass density [kg/m3]	viscosity [mPa·s]
288.15 K	789.18	2.752
298.15 K	780.84	2.018
308.15 K	772.23	1.507
318.15 K	763.27	1.15
328.15 K	753.89	0.895
338.15 K	744.02	0.704

[4]
Conditions	refractive index
288.15 K	1.37933
298.15 K	1.37517
308.15 K	1.37093
318.15 K	1.36643
328.15 K	1.36173
338.15 K	1.35682
